Our source for the flow rate and pressure values is patent US20260000070A1 (priority 2023, published 2026).

The subject of the experiment is endothelial cells / vascular system of perfused tissue.

Consider `CNCC(O)c1ccc(O)c(O)c1` (centres unmarked) [adrenaline], for which the flow rate entry is on record as “decrease” and the pressure result is “increase”.
